Results as given in patent US8367726B2, “Acid salt of tolterodine having effective stability for transdermal drug delivery system” (SK Chemicals Co., Ltd., priority 2008, dated 2013).
Counter-ions that a name gives are not always drawn.

Key:
[1] = Stability test under oxidation condition (0.3% hydrogen peroxide solution, HPLC total related substances); format: physicochemical; conditions: room temperature, 24 hours, HPLC area ratio of total related substances
From the text: (§1) This experiment is designed to confirm the storage stability of the various acid salts of tolterodine.
(§2) For a pharmaceutical drug to be processed into a certain formulation it is essential to be provided with sufficient storage stability. For example, for tablets or capsules, it is necessary for them to have stability in atmospheric condition, for injections, stability in moisture (water), and for patches, both stability in atmospheric condition and in moisture (water).

[2] = Stability test under acid condition (HPLC total impurities); format: physicochemical; conditions: acid condition (details not described)
From the text: as §1, §2

[3] = Alkali stability test (1M sodium hydroxide solution, HPLC total related substances); format: physicochemical; conditions: room temperature, 24 hours, HPLC area ratio of total related substances
From the text: as §1, §2

[4] = In vitro penetration test, Frantz cell mounted with hairless mouse skin; conditions: 10 mg/mL in propylene glycol, 32° C.
Protocol: I mL of tolterodine salt was added onto a Frantz cell, which was mounted with a hairless mouse skin. Then, the amount of tolterodine penetrated through the skin at 32° C. was quantitated and its cumulative amount was measured.

Row | Compound | Total impurities, oxidation condition [1] [% area] | Total impurities, acid condition [2] [% area] | Total impurities, alkali condition [3] [% area] | Cumulative amount of tolterodine penetrated through the skin ([4]; 0 hr) [µg] | Cumulative amount of tolterodine penetrated through the skin ([4]; 3 hr) [µg] | Cumulative amount of tolterodine penetrated through the skin ([4]; 6 hr) [µg] | Cumulative amount of tolterodine penetrated through the skin ([4]; 9 hr) [µg] | Cumulative amount of tolterodine penetrated through the skin ([4]; 12 hr) [µg]
1 | Cc1ccc(O)c(C(CCN(C(C)C)C(C)C)c2ccccc2)c1.O=C(O)c1ccc2ccccc2c1O (stereo not drawn) [tolterodine 1-hydroxy-2-naphtate, tolterodine 1-hydroxy-2-naphthate] | 0.33 | 0.10 | 0.15 | – | – | – | – | –
2 | Cc1ccc(O)c([C@H](CCN(C(C)C)C(C)C)c2ccccc2)c1.O=C1CC[C@@H](C(=O)O)N1 [tolterodine L-pyroglutamate, Tolterodine L-Pyroglutamate] | 0.56 | 0.03 | 0.08 | – | – | – | – | –
3 | Cc1ccc(O)c([C@H](CCN(C(C)C)C(C)C)c2ccccc2)c1.O=C(O)c1ccccc1 [tolterodine benzoate, Tolterodine Benzoate] | 0.39 | 0.02 | 0.10 | – | – | – | – | –
4 | Cc1ccc(O)c([C@H](CCN(C(C)C)C(C)C)c2ccccc2)c1 [tolterodine free base, 2-[(1R)-3-(diisopropylamino)-1-phenylpropyl)-4-methylphenol, reference compound] | 4.74 | 0.59 | 0.83 | – | – | – | – | –
5 | Cc1ccc(O)c([C@H](CCN(C(C)C)C(C)C)c2ccccc2)c1.O=C(O)c1cc(O)ccc1O [tolterodine gentisate, Tolterodine Gentisate] | 0.23 | 0.03 | 0.04 | – | – | – | – | –
6 | Cc1ccc(O)c([C@H](CCN(C(C)C)C(C)C)c2ccccc2)c1.Cc1ccc(O)c([C@H](CCN(C(C)C)C(C)C)c2ccccc2)c1.O=S(=O)(O)c1cccc2c(S(=O)(=O)O)cccc12 [tolterodine hemi naphthalene-1,5-disulfonate] | 0.40 | 0.07 | 0.11 | – | – | – | – | –
7 | Cc1ccc(O)c([C@H](CCN(C(C)C)C(C)C)c2ccccc2)c1.Cc1ccc(O)c([C@H](CCN(C(C)C)C(C)C)c2ccccc2)c1.O=C(O)CCCCC(=O)O [tolterodine hemiadipate, Tolterodine Hemiadipate] | 0.39 | 0.14 | 0.10 | – | – | – | – | –
8 | Cc1ccc(O)c([C@H](CCN(C(C)C)C(C)C)c2ccccc2)c1.O=C(O)CNC(=O)c1ccccc1 [tolterodine hippurate, Tolterodine Hippurate] | 0.41 | 0.11 | 0.14 | – | – | – | – | –
9 | CC1=C(/C=C/C(C)=C/C=C/C(C)=C/C(=O)O)C(C)(C)CCC1.Cc1ccc(O)c([C@H](CCN(C(C)C)C(C)C)c2ccccc2)c1 [tolterodine retinoate, Tolterodine Retinoate] | 0.08 | 0.15 | 0.19 | 0.0 | 0.5 | 1.7 | 2.5 | 4.1
10 | Cc1ccc(O)c([C@H](CCN(C(C)C)C(C)C)c2ccccc2)c1 [tolterodine tartrate, reference compound] | 0.98 | 0.20 | 0.29 | – | – | – | – | –
11 | Tolterodine Benzene Sulfonate [tolterodine benzenesulfonate] | 0.51 | 0.02 | 0.08 | 0.0 | 0.0 | 0.4 | 0.8 | 1.7
12 | Tolterodine Glucolate | 0.44 | 0.11 | 0.23 | – | – | – | – | –
13 | Tolterodine Toluene Sulfonate [tolterodine p-toluenesulfonate] | 0.09 | 0.11 | 0.06 | 0.0 | 1.1 | 8.0 | 19.9 | 36.6
